Test results published in publication PMC5630632, “Assessing inhibitors of mutant isocitrate dehydrogenase using a suite of pre-clinical discovery assays” (Scientific Reports, 2017).
Residue numbers refer to the chain shown, from its start. ≈ marks a conversion by molar mass, not a printed value. Where two headings read alike, the source gives them in different places.

Experiments:
[1] = Human plasma protein binding (rapid equilibrium dialysis, Cyprotex); assay type: in vitro ADME; conditions: for fraction unbound at 4 h, 5 µM: human, plasma, human plasma
IDH1 WT = IDH1 WT (Homo sapiens, UniProt O75874); assay: Wild type IDH1 enzyme assay, diaphorase/resazurin coupled; conditions: for Emax: read-out: IDH1 WT % EMax
IDH2 WT = molecular target: T1, IDH2 WT (Homo sapiens, UniProt P48735); assay: Wild type IDH2 enzyme assay, diaphorase/resazurin coupled
T1 sequence (P48735 40-452): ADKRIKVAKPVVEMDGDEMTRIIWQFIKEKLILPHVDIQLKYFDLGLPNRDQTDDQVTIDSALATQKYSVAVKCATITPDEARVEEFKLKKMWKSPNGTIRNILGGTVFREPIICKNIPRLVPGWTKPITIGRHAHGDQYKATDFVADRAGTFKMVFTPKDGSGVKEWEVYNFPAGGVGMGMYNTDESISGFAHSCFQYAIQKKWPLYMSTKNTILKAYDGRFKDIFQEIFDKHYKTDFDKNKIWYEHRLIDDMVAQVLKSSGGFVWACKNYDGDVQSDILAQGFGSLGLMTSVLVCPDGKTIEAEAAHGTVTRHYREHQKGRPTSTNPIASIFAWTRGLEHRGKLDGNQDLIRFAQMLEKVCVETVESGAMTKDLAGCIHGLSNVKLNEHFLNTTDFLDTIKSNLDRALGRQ

[2] = High-throughput kinetic solubility (µSOL), pH 7.4; assay type: physicochemical; conditions: aqueous solution pH 7.4, pH 7.4, aqueous buffer, kinetic from dmso stock; read-out: HT Kinetic Solubility, Solubility
Experimental: High-Throughput kinetic solubility test assay
Pion’s patented µSOL assay for kinetic solubility determination was used. In this assay, the classical saturation shake- flask solub ility method was adapted to a 96-well microtiter plate format and a co-solvent method with n- propanol as the […] was utilized. Test compounds were prepared in 10 mM DMSO solutions (45 µ L), and diluted with the co-solve nt to a final drug conce ntration of […]
Samples are incubated at room temperature for 6 hrs t o achieve equilibrium. The samples were then filtered to remove any precipitate formed. The concentrat ion of the compound in the filtrate was measured by UV ab sorbance. […]
used for quantitation of unknown drug concent ration in filtrate. Spectroscopically pure 1- Propanol was used as acosolvent to suppress precipitation in the reference

[3] = High-throughput PAMPA (GIT), pH 7.4; assay type: in vitro ADME; conditions: read-out: HT PAMPA Permeability
From the text: In Vitro Physicochemical and Drug Metabolism Studies:
High-Throughput PAMPA assay
The stirring double- sin k PAMPA method patented by pION Inc. (Billeri ca, MA) was employed to determine the permeability of compounds via PAMPA passive diffusion. The PAMPA lipid membrane consisted of an artificial membrane of a proprietary lipid mixture and dodecane (Pion Inc.), optimized to predict gastrointestinal tract (GIT) passive diffusion permeability, was immobilized on a plastic matrix of a 96 well “donor” filter plate placed above a 96 well “a cceptor” plate. A pH 7.4 solution was used in both donor and acceptor wells. The test articles, stocked in 10 mM DMSO solutions, were diluted to 0.05 mM in aqueous buffer (pH 7.4) , and the concentration of DMSO was 0.5% in the final solution. During the 30-min permeation period at room temperature, the test samples in the donor compartment were stirred using the Gutbox te chnology (Pion Inc.) to reduce the unstirred water layer. The test article concentrations in the donor and acceptor compartments were measured using an UV plate reader (Nano Quant, Infinite 200 […]
PRO, Tecan Inc., Männedorf, Switzerland). Permeability calculations were performed using Pion Inc. software and were expressed in units of 10-6 cm/s. […]

[4] = Microsomal metabolic stability, mouse; assay type: in vitro ADME; conditions: pH 7.4; mouse liver microsomes
[5] = Microsomal metabolic stability, rat; assay type: in vitro ADME; conditions: pH 7.4; rat liver microsomes
[6] = Microsomal metabolic stability, human; assay type: in vitro ADME; conditions: pH 7.4; human liver microsomes
hERG channel = molecular target: T2, hERG channel (Homo sapiens, UniProt Q12809); assay: hERG FluxOR-based thallium flux assay; assay type: cell-based; conditions: In Vitro Toxicity
T2 construct: host or cells: U2OS cells (ATCC)

in vitro = conditions: human, Caco-2
[7] = Human hepatocyte cytotoxicity (CellTiter-Glo, 72 hr); conditions: both, human, cryopreserved human hepatocytes
human hepatocytes = assay: as above; conditions: Homo sapiens, Hepatocyte, read-out: Human Hepatocytes EC50
R172Q mIDH2 = molecular target: T3, R172Q mIDH2 (Homo sapiens, UniProt P48735, R172Q); assay: mIDH2-R172Q enzyme assay (Reaction Biology), diaphorase/resazurin coupled; conditions: for Emax: read-out: IDH2 R172Q % EMax
T3 sequence (P48735 40-452 R172Q): T1 sequence (P48735 40-452) with R133Q

RBE (R132S) cells = assay: 2-HG production, monolayer (2D), mass spectrometry, RBE; assay type: cell-based; conditions: Homo sapiens, mass spec
Experimental: (§1) (Supplementary Table 2). Inhibition of the target was assessed by quantitative measurement of 2-HG levels in extracellular media of monolayer (or 2-dimentional, 2D) cultures following incubation (48 hrs) with inhibitors. […]
(§2) treated 96-well plates (Corning) at a density of 8000 cells/well/100 μL . Plates were sealed with gas permeable membranes (Research Products International Corp.) and incubated at 37°C, 5% CO2, 90% RH for 24 hr. Growth media was subsequently aspirated and replaced with 100 μL of a solution of growth media cont aining either vehicle DMSO or indicated mIDH1 inhibitor. Each compound was tested as an 8-point dilution series ranging from 5 μM to 2.3 nM. After 48 hr treatment, 75 μL of the exhausted media was collected and snap frozen on dry ice. Samples were analyzed by LC-MS for 2- HG concentrations using Rapidfire / Mass Spectrometry (Quintara) (4) . Remaining cells were assessed for viability by adding 100 μL of fresh media and 50 μL of CellTiter-Glo reagent (Promega) as per manufacturer instructions. Luminescence was read using a Vi ewLux High-throu ghpu t CCD imager (PerkinElmer) equipped with clear filters.

JJ012 (R132G) cells = assay: 2-HG production, monolayer (2D), mass spectrometry, JJ012; assay type: cell-based; conditions: Homo sapiens, mass spec
Experimental: as §1, §2

[8] = system: JJ012 (R132G) 3D cellular spheroids; assay: 2-HG production, spheroids (3D), JJ012; assay type: cell-based; conditions: Homo sapiens; 3D spheroid, mass spec
From the text: (§3) To evaluate the effect of mIDH1 inhibitors in more relevant models of solid tumors, we adapted a 3-dimensional (3D) multicellular tumor spheroid assay to monitor spheroid formation and 2-HG production. Small molecules can have diminished efficacy in multicellular tumor spheroid models due to limited penetration and the heterogeneous nature of the 3D tumor spheroid[39],[40]. We began by testing the 6 aforementioned cell lines for their ability to form spheroids in ultra-low attachment plates at varying cell concentrations (1000–5000 cells/well). […] Overall, spheroids produced less extracellular 2-HG than cells cultured in monolayer (Fig. 7B).
(§4) Using these simple 3D models of solid tumors, we assessed the ability of inhibitors to reduce 2-HG production.
(§5) 2-HG production: Cells grown as spheroids (3D)
(§6) (RBE) cells/well/150 μ L to form spheroids. Of note, we were not able to obtain spheroids using SNU1079 cells. Plates were sealed with gas permeable membranes, centrifuged at 40 rcf for 1 min, and incubated at 37°C, 5% CO2, 90% RH for 96 (HT108 0, U87 and JJ01 2) or 4 8 (RBE) h r. Cells were washed (by remo ving 10 0 μL of exhausted media and re placing it with 100 μL of growth media, twice) and treated with 50 μL of a solution of media containing the indicated compounds. Each compound was tested as an 8-point dilution series ranging from 5 μM to 2.3 nM.
(§7) After 96 hr of t reatment, 100 μL of the exhausted media was collected and snap frozen on dry ice. Samples were analyzed by LC -MS for 2- HG concentrations using Rapidfire /Mass Spectrometry (Quintara) ( 4) . Plates were first imaged on the Celigo Imaging Cytometer (Ne xcelom Bioscience) to quantify area of each spheroid. Cell viability was subsequently measured using the CellTiter-Glo assay with some modifications: 50 μL of a solution of CellTiter-Glo reagent containing a final concentration of 0.025 % Trypsin (Thermo Sci entific) was added to each well and plates were shaken at 500 rpm for 30 min before reading.

[9] = system: RBE (R132S) 3D cellular spheroids; assay: 2-HG production, spheroids (3D), RBE; assay type: cell-based; conditions: Homo sapiens; 3D spheroid, mass spec
From the text: as §3, §4, §5, §6, §7

Chain of IDH1 WT (O75874 whole entry): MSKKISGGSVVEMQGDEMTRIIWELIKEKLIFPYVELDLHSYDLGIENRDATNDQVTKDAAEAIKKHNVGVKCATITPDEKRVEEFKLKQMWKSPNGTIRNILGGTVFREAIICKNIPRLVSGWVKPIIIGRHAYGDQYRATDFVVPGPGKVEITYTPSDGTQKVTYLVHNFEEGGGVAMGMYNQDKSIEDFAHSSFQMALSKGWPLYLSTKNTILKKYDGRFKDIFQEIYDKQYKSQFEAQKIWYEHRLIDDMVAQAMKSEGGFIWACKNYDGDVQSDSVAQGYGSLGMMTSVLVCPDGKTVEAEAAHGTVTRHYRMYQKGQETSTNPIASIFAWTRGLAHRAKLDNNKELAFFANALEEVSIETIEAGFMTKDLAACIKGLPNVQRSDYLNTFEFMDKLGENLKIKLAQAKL
T2 sequence (Q12809 whole entry): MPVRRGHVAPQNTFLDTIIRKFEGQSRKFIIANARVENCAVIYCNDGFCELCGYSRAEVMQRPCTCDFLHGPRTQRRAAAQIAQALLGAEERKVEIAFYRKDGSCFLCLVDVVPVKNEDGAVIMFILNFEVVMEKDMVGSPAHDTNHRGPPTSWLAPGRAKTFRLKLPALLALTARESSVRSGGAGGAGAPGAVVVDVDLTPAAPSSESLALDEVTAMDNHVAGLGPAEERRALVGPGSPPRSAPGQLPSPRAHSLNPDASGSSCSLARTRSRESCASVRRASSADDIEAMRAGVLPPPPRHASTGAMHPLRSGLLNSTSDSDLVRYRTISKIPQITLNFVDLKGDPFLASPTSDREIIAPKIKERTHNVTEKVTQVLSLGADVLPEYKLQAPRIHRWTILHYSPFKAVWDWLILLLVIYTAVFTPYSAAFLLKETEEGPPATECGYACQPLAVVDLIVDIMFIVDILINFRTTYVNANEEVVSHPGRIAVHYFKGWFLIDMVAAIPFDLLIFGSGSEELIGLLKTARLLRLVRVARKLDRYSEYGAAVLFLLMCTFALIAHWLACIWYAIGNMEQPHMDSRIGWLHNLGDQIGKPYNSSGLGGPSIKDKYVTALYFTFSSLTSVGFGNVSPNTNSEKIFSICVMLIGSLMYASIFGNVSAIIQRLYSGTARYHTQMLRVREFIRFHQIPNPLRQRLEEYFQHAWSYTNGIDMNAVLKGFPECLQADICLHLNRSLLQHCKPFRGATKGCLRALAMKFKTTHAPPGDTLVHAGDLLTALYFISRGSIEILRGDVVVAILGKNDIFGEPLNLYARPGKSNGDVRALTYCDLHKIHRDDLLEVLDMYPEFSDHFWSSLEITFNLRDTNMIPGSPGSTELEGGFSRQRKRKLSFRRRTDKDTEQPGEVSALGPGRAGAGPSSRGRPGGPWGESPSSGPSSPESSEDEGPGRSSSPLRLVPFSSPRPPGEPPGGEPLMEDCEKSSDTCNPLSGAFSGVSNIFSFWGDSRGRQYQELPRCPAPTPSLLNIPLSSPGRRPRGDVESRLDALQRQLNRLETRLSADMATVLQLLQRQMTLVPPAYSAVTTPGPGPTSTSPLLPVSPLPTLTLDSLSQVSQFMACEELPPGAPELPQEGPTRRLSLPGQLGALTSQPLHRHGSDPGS

CC(=O)N1CCN(Cc2ccc([C@H](C)Nc3nccc(N4C(=O)OC[C@@H]4C(C)C)n3)cc2)CC1 [Novartis 556]
unbound fraction in human plasma ([1]; 5 µM): ~ 10 % unbound | EC50 (IDH1 WT; IDH1 WT EC50, purified enzyme): 10.5 ± 1.01 µM | Emax (IDH1 WT): 90 ± 7.4% | EC50 (IDH2 WT): > 30 µM | Emax (IDH2 WT; read-out: IDH2 WT % EMax): 20.7 ± 5.4%

CC(C)(O)CNc1nc(Nc2ccnc(C(F)(F)F)c2)nc(-c2cccc(C(F)(F)F)n2)n1 [AG-221, Enasidenib]
solubility kinetic at 6 h [2]: 14.2 µM (≈ 6.72 µg/mL) | Papp at 30 min, 0.05 mM [3]: 1310 ×10⁻⁶ cm/s | half-life at 1 µM [4]: > 2 h | half-life at 1 µM [5]: > 2 h | half-life at 1 µM [6]: > 2 h | fraction unbound at 4 h, 5 µM ([1]; read-out: Human Plasma Protein Binding % Bound (converted)): 0.006 | fraction unbound at 4 h, 5 µM ([1]; read-out: Human Plasma Protein Binding % Unbound): 0.00637 | EC50 (hERG channel): > 30 µM | Emax (hERG channel; human, U2OS cells transduced with hERG-BacMam virus): 33.2% | Papp A→B at 2 h, 10 µM (in vitro): 9.41 ×10⁻⁶ cm/s | Papp B→A at 2 h, 10 µM (in vitro): 23.8 ×10⁻⁶ cm/s | efflux ratio at 2 h, 10 µM (in vitro): 2.54 | Emax at 72 h [7]: 84.8% | EC50 (human hepatocytes): 18.4 µM | EC50 (IDH1 WT; IDH1 WT EC50, Biochemical): 15.1 µM | Emax (IDH1 WT): 57.7% | EC50 (IDH2 WT): > 30 µM | Emax (IDH2 WT; read-out: IDH2 % EMax): 83.4% | EC50 (R172Q mIDH2): 0.044 µM | IC50 (R172Q mIDH2): 0.065 µM | Emax (R172Q mIDH2): 87.2%

CC(C)[C@H]1COC(=O)N1c1ccnc(N[C@@H](C)c2ccc(C(=O)NC3CCCC3)c(Cl)c2)n1 [Novartis 530]
Emax (RBE (R132S) cells; read-out: 2D Cellular 2HG Production (Mass Spec) RBE (R132S) % EMax): 88.2% | EC50 (RBE (R132S) cells; read-out: 2D Cellular 2HG Production (Mass Spec) RBE (R132S) EC50): 0.078 µM | Emax (JJ012 (R132G) cells; read-out: 2D Cellular 2HG Production (Mass Spec) JJ012 (R132G) % EMax): 70.5% | EC50 (JJ012 (R132G) cells; read-out: 2D Cellular 2HG Production (Mass Spec) JJ012 (R132G) EC50): 0.076 µM | EC50 [8]: 0.069 µM | Emax [8]: 92.4% | EC50 [9]: 0.571 µM | Emax [9]: 86.9% | EC50 (IDH1 WT; IDH1 WT EC50, Biochemical): 3.5 µM | EC50 (IDH1 WT; IDH1 WT EC50, purified enzyme): 3.51 ± 0.17 µM | Emax (IDH1 WT): 102 ± 5.8% | EC50 (IDH2 WT): > 30 µM | Emax (IDH2 WT; read-out: IDH2 WT % EMax): 17.3 ± 4.4% | EC50 (R172Q mIDH2): > 30 µM | Emax (R172Q mIDH2): 3.9%
